The test relates to A5-S3G (DNA, aptamer) TCGGATAAAACCGGGCGGCGTTACACTAGGCG
The test can be described thus: biolayer interferometry. The note with it: 150 mM NaCl, 2 mM MgCl2; 50 mM Tris-HCl, pH 7.5; tested at 1000 nM in aptasensor. On the technique in general: Biolayer interferometry detects binding as a change in optical thickness at a sensor tip.

Here are results for one compound from publication PMC11510897 (2024).

Each structure is given as a SMILES string.

Turning to `C=C1[C@@H](O)[C@@H]2O[C@]3(CC[C@H](/C=C/[C@@H](C)[C@@H]4CC(C)=C[C@@]5(O[C@H](C[C@@](C)(O)C(=O)O)CC[C@H]5O)O4)O3)CC[C@H]2O[C@@H]1[C@@H](O)C[C@H](C)[C@H]1O[C@@]2(CCCCO2)CC[C@H]1C`, the binding entry is “no”.
